Test results: patent US12559559B2, “Targeting Galectin-9 as a therapeutic strategy for T-cell exhaustion in T-cell acute lymphoblastic leukemia” (DANA-FARBER CANCER INSTITUTE, INC., priority 2019, dated 2026)
Like-named read-outs stand apart in the source and are kept apart here.

Columns and labels:
[1] = tested on: Notch; assay: Single-cell RNA-seq of leukemic cells of ETP T-ALL patients before and after GSI treatment; type: in vivo, human; settings: scRNA-seq
Text: Banked blood or bone marrow samples from patients with relapsed/refractory ETP T-ALL (see Table 1) were used in this study. All patients provided informed consent and were enrolled on a phase I clinical trial (NCT01363817) with the γ-secretase inhibitor (GSI) BMS-906024, a Notch inhibitor. Ayala Pharmaceuticals is investigating AL101 (BMS-906024) in a Phase II open-label, single-arm, multicenter study in ACC patients harboring known NOTCH1-4 activating mutations (ACCURACY; NCT03691207). Normal donor blood was obtained from Research Blood Components, LLC; and mononuclear cells (PBMCs) were isolated using Ficoll-Paque PLUS from GE Healthcare.
Full-length single-cell RNA-seq libraries were prepared using the SMART-seq2 protocol (Picelli et al., 2014 Nat Protoc, 9(1):171-181). cDNA was fragmented using Nextera XT (Illumina) and amplified with indexed Nextera PCR primers. Products were quantified using a Bioanalyzer High Sensitivity DNA Kit. Pooled libraries were sequenced on a NextSeq 500 (Illumina) with an average sequencing depth of 0.5-1 million reads per cell.
Processing and quality filtering of scRNA-seq data was carried out using trimmomatic^21, STAR (Dobin et al., 2013 Bioinformatics, 29(1):15-21), HTSeq (Anders et al., 2015 Bioinformatics, 31(2):166-169) and RSEM (Li et al., 2011 BMC Bioinformatics, 12:323). Clustering of single-cell profiles and marker gene analyses were performed using PAGODA2 (Fan et al., 2016 Nature methods, 13(3):241-244), monocole2 (Trapnell et al., 2014 Nat Biotechnol, 32(4):381-386), SEURAT (Butler et al., 2018 Nature Biotechnology, 36(5):411-420) and RNA velocity (La et al., 2018 Nature, 560(7719):494-498). Single nucleotide variant and copy number analyses were performed with mutect2 (Cibulskis et al., 2013 Nat Biotechnol, 31(3):213-219), InferCNV (Patel et al., 2014 Science, 344(6190):1396-1401; Tirosh et al., 2016 Science, 352(6282):189-196) and CONICSmat (Muller et al., 2018 Bioinformatics, 34(18):3217-3219). Single-cell profiles were compared with cell types from ImmGen (Heng et al., 2008 Nat Immunol, 9[…] a log-likelihood model. Transcriptional regulon and signaling pathway activities were analyzed with SCENIC (Fernandez et al., 2016 Cell Syst, 3(5):491-495 e495) and PROGENy (Schubert et al., 2018 Nat Commun, 9(1):20). Further details of the analysis are set forth below.
In order to fully define ETP T-ALL heterogeneity on the single-cell level, a full-length transcriptome analysis of 5,077 malignant and normal immune cells (T-cells, B-cells and monocytes) was performed from bone marrow or blood from four healthy donors and five patients with relapsed/refractory ETP T-ALL, diagnosed by immunophenotyping for ETP T-ALL, all with NOTCH1 gain-of-function mutations. These patients were treated with the γ-secretase inhibitor (GSI), and pre- and post-treatment samples were processed for this study.
The effects of Notch inhibition were next explored. […] It was hypothesized that persistence of a stem-like population might be the reason for the limited effects of Notch inhibitors in patients with relapsed/refractory Notch-mutant T-ALL.

[2] = tested on: DND-41 T-ALL cell line; assay: Cell proliferation assay (CellTiter-Glo cell viability), DND-41; type: cell-based; settings: DND41, 168 h, 7 days, read-out: IC50, cell viability normalized to DMSO
Experimental: (§1) FIG. 16A-16E is a series of graphs showing inhibition of T-ALL proliferation by PI3K inhibitor is increased when combined with GSI. DND-41, HPB-ALL, KOPT-K1, Jurkat and Loucy T-ALL cell lines were treated with Buparlisib, GSI, Buparlisib with 1 μM of GSI or DMSO for 7 days. Dose response curves of cell viability normalized to DMSO are shown (datapoints are derived from 3 replicates each, error bars show standard deviation).
(§2) The leukemia cell lines (all verified by STR profiling) DND-41, KOPT-K1, HPB-ALL, Loucy, MOLT-4, NALM-6, SEM, KG-1 and HL-60 were obtained from ATCC or DSMZ, and were cultured in RPMI 1640 with 10% of heat-inactivated fetal bovine serum, 1% penicillin/streptomycin (Invitrogen).
(§3) Buparlisib (Selleckchem) and GSI (Santa Cruz Biotechnology, Inc) were prepared in DMSO (Sigma-Aldrich). Cell proliferation assays were measured by CellTiter-Glo Luminescent Cell viability assay (Promega), after a period of seven days. IC50 values were calculated by fitting the dose-response curves to a three-parameter sigmoid dose-response model using GraphPad. Error bars reflect standard deviation.

[3] = tested on: HPB-ALL T-ALL cell line; assay: Cell proliferation assay (CellTiter-Glo cell viability), HPB-ALL; type: cell-based; settings: Homo sapiens, HPBALL, 168 h, 7 days, read-out: IC50, cell viability normalized to DMSO
Experimental: as §1, §2, §3

[4] = tested on: KOPT-K1 T-ALL cell line; assay: Cell proliferation assay (CellTiter-Glo cell viability), KOPT-K1; type: cell-based; settings: Homo sapiens, KOPTK1, 168 h, 7 days, read-out: IC50, cell viability normalized to DMSO
Experimental: as §1, §2, §3

[5] = tested on: Jurkat T-ALL cell line; assay: Cell proliferation assay (CellTiter-Glo cell viability), Jurkat; type: cell-based; settings: Homo sapiens, 168 h, 7 days, read-out: IC50, cell viability normalized to DMSO
Experimental: as §1, §3

[6] = tested on: Loucy T-ALL cell line; assay: Cell proliferation assay (CellTiter-Glo cell viability), Loucy; type: cell-based; settings: 168 h, 7 days, read-out: IC50, cell viability normalized to DMSO
Experimental: as §1, §2, §3

[7] = ETP T-ALL patients treated with GSI

Row | SMILES | Cell cycle of leukemic cells upon treatment [1, 7] | Notch target gene expression upon treatment [1, 7] | Cycling stem-like root cells (root2) after treatment ([1]; ETP T-ALL patients) | Non-cycling root cells (root1) after treatment ([1]; ETP T-ALL patients) | Cells with high PI3K signaling activity compared to untreated cells ([1]; ETP T-ALL patients, PROGENy) | IC50 ([2]; DND-41, Buparlisib alone) | IC50 ([2]; DND-41, Buparlisib with 1 μM of GSI) | IC50 ([3]; Buparlisib alone) | IC50 ([3]; Buparlisib with 1 μM of GSI) | IC50 ([4]; KOPT-K1, Buparlisib alone) | IC50 ([4]; KOPT-K1, Buparlisib with 1 μM of GSI) | IC50 ([5]; Buparlisib alone) | IC50 ([5]; Buparlisib with 1 μM of GSI) | IC50 ([6]; Buparlisib alone) | IC50 ([6]; Buparlisib with 1 μM of GSI)
1 | CN1C(=O)[C@@H](NC(=O)[C@H](CCC(F)(F)F)[C@H](CCC(F)(F)F)C(N)=O)N=C(c2ccccc2)c2ccccc21 [GSI, BMS-906024] | Cell cycle arrest | downregulation of Notch target genes | abolishes the cycling stem-like root cells (root2) | persist in the face of treatment | enrichment of cells with high PI3K signaling activity |  |  |  |  |  |  |  |  |  | 
2 | Nc1cc(C(F)(F)F)c(-c2cc(N3CCOCC3)nc(N3CCOCC3)n2)cn1 [Buparlisib] |  |  |  |  |  | 1010 nM | 132 nM | 340 nM | 0.00723 nM | 1160 nM | 250 nM | 720 nM | 423 nM | 650 nM | 710 nM
